Laboratory results: paper PMC11093748, “De novo identification of CD4^+ T cell epitopes” (Nature Methods, 2024)
“And” between values parts separate entries of the source, which are not always exact repeats. Identical values can stand only once.

system: TCR28; experiment: I-Ag7 SABR-II library screen, enrichment score; assay type: cell-based, mouse; settings: TCR_Mean minus PREDICTED_TCR (slope 0.899229, intercept 2.47291e-5 on LIB_Mean), TCR 28, run PZ57
From the text: (§1) We then asked whether SABR-IIs could be used to present a library of epitopes for CD4^+ T cell antigen discovery. To that end, we constructed a SABR-II library to present epitopes derived from pancreatic islets in I-Ag7 by curating a list of 4,075 published epitopes from the Immune Epitope Database (iedb.org)[50] and a study by Wan et al.[51] (Supplementary Table 1). Of note, this defined library consisted of unmodified epitopes from endogenous proteins, synthetic mimotopes, deamidated epitopes and hybrid insulin peptides (HIPs) that arise from post-translational fusion and are not genetically encoded in vivo[52],[53]. The epitope library was inserted into the I-Ag7 SABR-II backbone through pooled oligonucleotide synthesis, amplification and ligation-free cloning (Extended Data Fig. 3a). The I-Ag7 SABR-II-library was then expressed in NFAT–GFP Jurkat cells. We confirmed that after sequencing, the library accounted for a mean of 708 reads per epitope (Extended Data Fig. 3b). As a proof of concept, we performed co-incubation assays with Jurkat cells expressing the BDC2.5 TCR and sorted the top 1–2% of GFP^+CD69^+ cells at a rate of ~20 min per replicate with three replicates per TCR. We extracted the genomic DNA from sorted cells, amplified the SABR portion of the integrated proviruses and subjected the amplicons to Illumina sequencing (Extended Data Fig. 3c,d). The 1–2% sort gate represents >50-fold enrichment of cognate epitopes with minimal loss of signal (Extended Data Fig. 3e–h). Sequence reads were aligned to the I-Ag7 SABR-II backbone and the corresponding epitopes were scored based on their read counts. For each TCR under investigation, an enrichment score (ES) was determined for all the epitopes in a library. In each experiment, three replicates of a sort with TCR-expressing Jurkat cells were performed and reads were counted post-sequencing. In addition, three replicates of the unsorted library were also sequenced. A linear regression model was built using the unsorted library counts and used to determine the expected abundance of each epitope in the library. The ES was calculated based on the difference between the measured and the expected abundance of each epitope on a per-TCR basis (Fig. 1e). Based on ES values, two quantitative thresholds were used to determine putative cognate epitopes of a given TCR. A high-confidence zone containing clear outliers with a high ES and a low-confidence zone containing weak outliers with a moderately high ES were determined (Fig. 1e). This two-tiered strategy was used to call putative hits from screens. All the top-scoring epitopes for the BDC2.5 TCR were known BDC2.5 ligands containing the WXRM(D/E) motif (Fig. 1f,g, enriched ligands in red), a well-characterized trait of the BDC2.5 TCR[43],[54]–[56]. Across several independent experiments there was limited variation in ES values for the same TCRs and several epitopes fell into high- or low-confidence zones consistently (Extended Data Fig. 4a). Using a different TCR that was isolated from NOD mice, 4-8Ins[57], which recognized the InsB9:23 epitope ([…]), we observed a similar pattern of ES for cognate epitopes (Extended Data Fig. 4b).
(§2) We performed systematic screening of the cloned TCRs against the I-Ag7 SABR-II library. Several TCRs along with a positive control (such as BDC2.5 or 4-8Ins) were screened individually against the library for each sort (Extended Data Fig. 6a and Supplementary Table 4). High- and low-confidence ES zones for each screened TCR were defined by the ES values of the control TCR’s cognate epitopes. For all putative cognate epitopes, single SABR-IIs were constructed, expressed in NFAT–GFP Jurkat cells and used for co-incubation with the corresponding TCRs. Co-incubation assays that yielded a GFP signal higher than that obtained in assays with no TCR were determined to be positive and the epitopes deemed true cognate ligands (Extended Data Fig. 6b,c). […]

Row | Sequence | Enrichment score
1 | AAVEEGIVAGGGVTLL | -8.055e-6
2 | AEKVRNLPAGHGLNAQ | 9.652e-5
3 | AGGVAVIKAGAATEV | 5.039e-6
4 | AKAAVEEGIVAGGGV | 0.000168
5 | ALVREGLRNVAAGANP | -1.908e-5

system: TCR26; experiment: I-Ag7 SABR-II library screen, enrichment score; assay type: cell-based, mouse; settings: TCR_Mean minus PREDICTED_TCR (slope 0.971972, intercept 6.87806e-6 on LIB_Mean), TCR 26, run PZ56
From the text: as §1, §2

Row | Sequence | Enrichment score
6 | AAVEEGIVAGGGVTLL | -0.0002176
7 | AEKVRNLPAGHGLNAQ | 4.292e-6
8 | AGGVAVIKAGAATEV | -8.754e-5
9 | AKAAVEEGIVAGGGV | -6.247e-5
10 | ALVREGLRNVAAGANP | -7.519e-6

system: TCR5; experiment: I-Ag7 SABR-II library screen, enrichment score; assay type: cell-based, mouse; settings: I-Ag7 library; one biological experiment
From the text: as §1, §2

Row | Sequence | Enrichment score
11 | AAVEEGIVAGGGVTLL | 2.521e-5 and 3.881e-5

same assay, conditions: sheet TCR5-PZ44; ES = TCRObserved - TCRPredicted; TCRPredicted = LIBObserved x SLOPE + INTERCEPT; SLOPE 0.90726, INTERCEPT 2.27584e-5

Row | Sequence | Enrichment score
12 | AAVEEGIVAGGGVTLL | 2.521e-5
13 | AEKVRNLPAGHGLNAQ | 1.968e-5
14 | AGGVAVIKAGAATEV | -1.203e-5
15 | AKAAVEEGIVAGGGV | 4.678e-5
16 | ALVREGLRNVAAGANP | -2.1402e-5

system: TCR17C; experiment: I-Ag7 SABR-II library screen, enrichment score; assay type: cell-based, mouse; settings: TCR_Mean minus PREDICTED_TCR (from LIB_Mean, SLOPE 0.897918, INTERCEPT 2.50509e-5), PZ52
From the text: as §1, §2

Row | Sequence | Enrichment score
17 | AAVEEGIVAGGGVTLL | -3.436e-5
18 | AEKVRNLPAGHGLNAQ | 2.049e-5
19 | AGGVAVIKAGAATEV | -0.0001062
20 | AKAAVEEGIVAGGGV | -5.707e-5
21 | ALVREGLRNVAAGANP | -2.514e-5

system: TCR9; experiment: I-Ag7 SABR-II library screen, enrichment score; assay type: cell-based, mouse; settings: TCR_Mean minus PREDICTED_TCR (from LIB_Mean, SLOPE 0.950453, INTERCEPT 1.21587e-5), PZ47
From the text: as §1, §2

Row | Sequence | Enrichment score
22 | AAVEEGIVAGGGVTLL | -0.0001033
23 | AEKVRNLPAGHGLNAQ | 2.252e-5
24 | AGGVAVIKAGAATEV | -1.065e-5
25 | AKAAVEEGIVAGGGV | 0.0002844
26 | ALVREGLRNVAAGANP | -9.186e-6

system: TCR17A; experiment: I-Ag7 SABR-II library screen, enrichment score; assay type: cell-based, mouse; settings: TCR_Mean minus PREDICTED_TCR (from LIB_Mean, SLOPE 0.925966, INTERCEPT 1.81678e-5), PZ52
From the text: as §1, §2

Row | Sequence | Enrichment score
27 | AAVEEGIVAGGGVTLL | -0.0001329
28 | AEKVRNLPAGHGLNAQ | -0.0001276
29 | AGGVAVIKAGAATEV | -5.895e-5
30 | AKAAVEEGIVAGGGV | 7.661e-5
31 | ALVREGLRNVAAGANP | -1.826e-5

system: TCR7; experiment: I-Ag7 SABR-II library screen, enrichment score; assay type: cell-based, mouse; settings: I-Ag7 library; one biological experiment
From the text: as §1, §2

Row | Sequence | Enrichment score
32 | AAVEEGIVAGGGVTLL | 1.142e-5
33 | AEKVRNLPAGHGLNAQ | 5.397e-5
34 | AGGVAVIKAGAATEV | -2.964e-5
35 | AKAAVEEGIVAGGGV | 0.0001251
36 | ALVREGLRNVAAGANP | -9.699e-6

same assay, conditions: sheet TCR7-PZ47; ES = TCRObserved - TCRPredicted; TCRPredicted = LIBObserved x SLOPE + INTERCEPT; SLOPE 0.961246, INTERCEPT 9.5102e-6

Row | Sequence | Enrichment score
37 | AAVEEGIVAGGGVTLL | 1.142e-5
38 | AEKVRNLPAGHGLNAQ | 5.397e-5
39 | AGGVAVIKAGAATEV | -2.964e-5
40 | AKAAVEEGIVAGGGV | 0.0001251
41 | ALVREGLRNVAAGANP | -9.699e-6

system: TCR10A; experiment: I-Ag7 SABR-II library screen, enrichment score; assay type: cell-based, mouse; settings: TCR_Mean minus PREDICTED_TCR (from LIB_Mean, SLOPE 0.950997, INTERCEPT 1.20253e-5), PZ47
From the text: as §1, §2

Row | Sequence | Enrichment score
42 | AAVEEGIVAGGGVTLL | 0.0001778
43 | AEKVRNLPAGHGLNAQ | -7.319e-5
44 | AGGVAVIKAGAATEV | -2.727e-5
45 | AKAAVEEGIVAGGGV | -4.524e-5
46 | ALVREGLRNVAAGANP | -1.221e-5

system: TCR13; experiment: I-Ag7 SABR-II library screen, enrichment score; assay type: cell-based, mouse; settings: I-Ag7 library; one biological experiment
From the text: as §1, §2

Row | Sequence | Enrichment score
47 | AAVEEGIVAGGGVTLL | 0.0001546
48 | AEKVRNLPAGHGLNAQ | 0.000137
49 | AGGVAVIKAGAATEV | 0.0001675
50 | AKAAVEEGIVAGGGV | 0.0001008
51 | ALVREGLRNVAAGANP | -2.357e-5

same assay, conditions: TCR13; TCR_Mean minus PREDICTED_TCR (from LIB_Mean, SLOPE 0.90397, INTERCEPT 2.35655e-5); PZ51

Row | Sequence | Enrichment score
52 | AAVEEGIVAGGGVTLL | 0.0001546
53 | AEKVRNLPAGHGLNAQ | 0.000137
54 | AGGVAVIKAGAATEV | 0.0001675
55 | AKAAVEEGIVAGGGV | 0.0001008
56 | ALVREGLRNVAAGANP | -2.357e-5

system: TCR29; experiment: I-Ag7 SABR-II library screen, enrichment score; assay type: cell-based, mouse; settings: TCR_Mean minus PREDICTED_TCR (slope 0.951614, intercept 1.18738e-5 on LIB_Mean), TCR 29, run PZ98
From the text: as §1, §2

Row | Sequence | Enrichment score
57 | AAVEEGIVAGGGVTLL | -4.805e-5
58 | AEKVRNLPAGHGLNAQ | -9.799e-5
59 | AGGVAVIKAGAATEV | -4.862e-5
60 | AKAAVEEGIVAGGGV | -1.352e-5
61 | ALVREGLRNVAAGANP | -1.187e-5

system: TCR23; experiment: I-Ag7 SABR-II library screen, enrichment score; assay type: cell-based, mouse; settings: I-Ag7 library; one biological experiment
From the text: as §1, §2

Row | Sequence | Enrichment score
62 | AAVEEGIVAGGGVTLL | -9.242e-5
63 | AEKVRNLPAGHGLNAQ | 8.732e-6
64 | AGGVAVIKAGAATEV | -9.6548e-5
65 | AKAAVEEGIVAGGGV | -2.11e-5
66 | ALVREGLRNVAAGANP | -1.174e-5

same assay, conditions: TCR_Mean minus PREDICTED_TCR (slope 0.987149, intercept 3.15366e-6 on LIB_Mean), TCR 23, run PZ56

Row | Sequence | Enrichment score
67 | AAVEEGIVAGGGVTLL | 8.213e-5
68 | AEKVRNLPAGHGLNAQ | 0.0001238
69 | AGGVAVIKAGAATEV | -7.52e-5
70 | AKAAVEEGIVAGGGV | -9.2e-5
71 | ALVREGLRNVAAGANP | -3.805e-6

system: TCR17D; experiment: I-Ag7 SABR-II library screen, enrichment score; assay type: cell-based, mouse; settings: TCR_Mean minus PREDICTED_TCR (from LIB_Mean, SLOPE 0.965121, INTERCEPT 8.55929e-6), PZ52
From the text: as §1, §2

Row | Sequence | Enrichment score
72 | AAVEEGIVAGGGVTLL | 9.065e-5
73 | AEKVRNLPAGHGLNAQ | -0.00018
74 | AGGVAVIKAGAATEV | -6.024e-5
75 | AKAAVEEGIVAGGGV | -0.0001083
76 | ALVREGLRNVAAGANP | -8.6588e-6

system: TCR6B; experiment: I-Ag7 SABR-II library screen, enrichment score; assay type: cell-based, mouse; settings: sheet TCR6B-PZ37; ES = TCRObserved - TCRPredicted; TCRPredicted = LIBObserved x SLOPE + INTERCEPT; SLOPE 0.908569, INTERCEPT 2.24372e-5
From the text: as §1, §2

Row | Sequence | Enrichment score
77 | AAVEEGIVAGGGVTLL | 4.397e-5
78 | AEKVRNLPAGHGLNAQ | -0.0001883
79 | AGGVAVIKAGAATEV | 0.0001547
80 | AKAAVEEGIVAGGGV | 0.0001193
81 | ALVREGLRNVAAGANP | -2.303e-5

system: TCR12; experiment: I-Ag7 SABR-II library screen, enrichment score; assay type: cell-based, mouse; settings: TCR_Mean minus PREDICTED_TCR (from LIB_Mean, SLOPE 0.937219, INTERCEPT 1.54064e-5), PZ51
From the text: as §1, §2

Row | Sequence | Enrichment score
82 | AAVEEGIVAGGGVTLL | -3.643e-5
83 | AEKVRNLPAGHGLNAQ | -0.0001285
84 | AGGVAVIKAGAATEV | -1.359e-5
85 | AKAAVEEGIVAGGGV | -1.697e-5
86 | ALVREGLRNVAAGANP | -1.438e-5
